Assay results: PMC11219871, “Epigenetic-based differentiation therapy for Acute Myeloid Leukemia” (Nature Communications, 2024)

Legend:
Assay in all cases: CYP inhibition in human liver microsomes
Type in all cases: in vitro ADME
Conditions in all cases: 10 µM
cytochrome P450 1A2 = molecular target: T1, cytochrome P450 1A2 (Homo sapiens, UniProt P05177)
T1 construct: Corning Cat # 452117); tissue Corning 452117; host or cells: human liver microsomes
Protocol: (§1) This study was conducted at Wuxi (http://www.wuxi.com/). The inhibitory effects of CM-444 and CM-1758 on five human cytochrome P450s (1A2, 2C9, 2C19, 2D6 and 3A4) were evaluated in human liver microsomes. Test compounds (10 µM final concentration) or control compounds (α-naphthoflavone, sulfaphenazole, (+)-N-3-benzylnirvanol, quinidine, ketoconazole; 3-µM final concentration), and the corresponding substrates for each P450 isoform (1A2: phenacetin, 10-µM final concentration; 2C9: diclofenac, 5-µM final concentration; 2C19: S-mephenytoin, 30-µM final concentration, 2D6: dextromethorphan, 5-µM final concentration; 3A4: midazolam, 2-µM final concentration) were incubated with human liver microsomes (0.2-mg/mL final concentration; Corning Cat # 452117) and NADPH cofactor (1-mM final concentration, Chem-impex Cat # 00616) for 10 min at 37 °C. The reaction was terminated by adding 400 µL of cold stop solution (200 ng/mL tolbutamide and labetalol in acetonitrile), and the samples were centrifuged at 1520 g for 20 min. Next, 200-μL aliquots of supernatants were diluted with 100 μL of ultra-pure water and shaken for 10 min. The samples were analyzed by LC-MS/MS using an analyte/internal standard peak area ratio. Test compounds and positive controls were tested in duplicate. The percentage of inhibition was calculated as the ratio of substrate metabolite detected in treated and non-treated wells.

cytochrome P450 2C19 = molecular target: T2, cytochrome P450 2C19 (Homo sapiens, UniProt P33261)
T2 construct: Corning Cat # 452117); tissue Corning 452117; host or cells: human liver microsomes
T2 sequence (P33261 whole entry): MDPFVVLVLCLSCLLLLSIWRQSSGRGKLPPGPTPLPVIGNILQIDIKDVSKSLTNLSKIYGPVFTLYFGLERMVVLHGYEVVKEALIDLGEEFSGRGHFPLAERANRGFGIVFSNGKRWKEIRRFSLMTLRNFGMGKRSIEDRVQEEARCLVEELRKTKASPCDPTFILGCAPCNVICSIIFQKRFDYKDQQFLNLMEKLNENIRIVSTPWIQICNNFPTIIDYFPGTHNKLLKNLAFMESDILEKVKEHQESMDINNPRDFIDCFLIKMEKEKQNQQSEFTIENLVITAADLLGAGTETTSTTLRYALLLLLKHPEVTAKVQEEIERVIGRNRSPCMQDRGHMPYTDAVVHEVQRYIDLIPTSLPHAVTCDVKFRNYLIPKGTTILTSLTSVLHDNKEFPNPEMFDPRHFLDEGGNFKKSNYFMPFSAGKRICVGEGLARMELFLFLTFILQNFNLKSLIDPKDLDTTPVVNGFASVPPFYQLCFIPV
Protocol: as §1

cytochrome P450 2C9 = molecular target: T3, cytochrome P450 2C9 (Homo sapiens, UniProt P11712)
T3 construct: Corning Cat # 452117); tissue Corning 452117; host or cells: human liver microsomes
T3 sequence (P11712 whole entry): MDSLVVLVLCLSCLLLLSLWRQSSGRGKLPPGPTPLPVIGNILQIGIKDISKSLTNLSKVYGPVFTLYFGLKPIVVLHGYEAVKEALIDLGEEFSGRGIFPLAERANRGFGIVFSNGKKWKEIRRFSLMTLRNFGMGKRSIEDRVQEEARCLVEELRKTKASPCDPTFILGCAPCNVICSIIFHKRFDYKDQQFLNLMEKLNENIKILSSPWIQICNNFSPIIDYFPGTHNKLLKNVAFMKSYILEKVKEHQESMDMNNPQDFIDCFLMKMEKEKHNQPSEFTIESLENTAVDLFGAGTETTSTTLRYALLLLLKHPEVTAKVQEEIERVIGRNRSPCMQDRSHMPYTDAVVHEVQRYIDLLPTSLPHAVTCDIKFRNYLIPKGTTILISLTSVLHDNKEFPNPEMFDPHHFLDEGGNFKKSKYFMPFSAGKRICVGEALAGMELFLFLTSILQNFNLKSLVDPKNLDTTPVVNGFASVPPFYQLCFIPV
Protocol: as §1

cytochrome P450 2D6 = molecular target: T4, cytochrome P450 2D6 (Homo sapiens, UniProt P10635)
T4 construct: Corning Cat # 452117); tissue Corning 452117; host or cells: human liver microsomes
T4 sequence (P10635 whole entry): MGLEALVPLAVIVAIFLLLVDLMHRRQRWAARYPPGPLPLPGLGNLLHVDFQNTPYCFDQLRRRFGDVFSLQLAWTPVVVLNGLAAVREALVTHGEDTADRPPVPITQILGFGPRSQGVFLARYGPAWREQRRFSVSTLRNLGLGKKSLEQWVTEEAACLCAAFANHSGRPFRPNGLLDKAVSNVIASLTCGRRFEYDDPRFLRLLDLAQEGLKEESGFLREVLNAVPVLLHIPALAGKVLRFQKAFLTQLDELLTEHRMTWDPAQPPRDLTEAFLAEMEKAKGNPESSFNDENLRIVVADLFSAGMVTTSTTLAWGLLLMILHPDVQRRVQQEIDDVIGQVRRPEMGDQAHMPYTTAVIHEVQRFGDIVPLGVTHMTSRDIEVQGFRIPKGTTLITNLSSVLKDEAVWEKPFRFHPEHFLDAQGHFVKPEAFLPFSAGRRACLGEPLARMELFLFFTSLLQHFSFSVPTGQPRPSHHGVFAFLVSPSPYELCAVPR
Protocol: as §1

cytochrome P450 3A4 = molecular target: T5, cytochrome P450 3A4 (Homo sapiens, UniProt P08684)
T5 construct: Corning Cat # 452117); tissue Corning 452117; host or cells: human liver microsomes
T5 sequence (P08684 whole entry): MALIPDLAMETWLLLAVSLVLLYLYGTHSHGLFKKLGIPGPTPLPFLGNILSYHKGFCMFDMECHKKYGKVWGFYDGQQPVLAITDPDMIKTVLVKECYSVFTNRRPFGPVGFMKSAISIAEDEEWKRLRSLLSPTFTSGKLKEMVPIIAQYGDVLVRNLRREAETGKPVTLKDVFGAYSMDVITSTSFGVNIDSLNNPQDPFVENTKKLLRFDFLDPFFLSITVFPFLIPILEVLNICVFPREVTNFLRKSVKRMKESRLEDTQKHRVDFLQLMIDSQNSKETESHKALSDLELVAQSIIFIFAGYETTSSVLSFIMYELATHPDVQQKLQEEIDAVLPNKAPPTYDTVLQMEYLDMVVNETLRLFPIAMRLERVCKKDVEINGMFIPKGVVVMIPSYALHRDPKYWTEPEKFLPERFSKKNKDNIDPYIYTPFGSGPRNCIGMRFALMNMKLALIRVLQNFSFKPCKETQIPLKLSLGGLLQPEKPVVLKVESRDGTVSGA
Protocol: as §1

T1 sequence (P05177 whole entry): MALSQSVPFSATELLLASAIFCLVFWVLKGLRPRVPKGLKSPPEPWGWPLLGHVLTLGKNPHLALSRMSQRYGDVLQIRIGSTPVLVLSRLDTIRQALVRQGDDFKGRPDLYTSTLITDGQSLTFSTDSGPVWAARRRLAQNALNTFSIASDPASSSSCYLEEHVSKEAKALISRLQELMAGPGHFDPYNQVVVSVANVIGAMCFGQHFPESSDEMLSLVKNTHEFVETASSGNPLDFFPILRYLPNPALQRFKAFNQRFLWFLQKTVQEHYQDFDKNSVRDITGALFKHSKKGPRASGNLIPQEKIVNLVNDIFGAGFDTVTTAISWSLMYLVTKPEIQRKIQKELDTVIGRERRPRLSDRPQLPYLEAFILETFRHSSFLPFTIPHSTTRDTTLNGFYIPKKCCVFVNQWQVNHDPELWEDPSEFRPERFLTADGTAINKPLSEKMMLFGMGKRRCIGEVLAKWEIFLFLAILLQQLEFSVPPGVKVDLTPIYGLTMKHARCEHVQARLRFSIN

SMILES | P450S Inhibition (1A2) (cytochrome P450 1A2) [%] | P450S Inhibition (2C19) (cytochrome P450 2C19) [%] | P450S Inhibition (2C9) (cytochrome P450 2C9) [%] | P450S Inhibition (2D6) (cytochrome P450 2D6) [%] | P450S Inhibition (3A4) (cytochrome P450 3A4) [%]
COc1cc2nc(-c3ccc(C)o3)cc(NCC3CCN(c4ncc(C(=O)NO)cn4)CC3)c2cc1OC [CM-444, 2-[4-[[[6,7-dimethoxy-2-(5-methyl-2-furyl)-4-quinolyl]amino]methyl]-1-piperidyl]pyrimidine-5-carbohydroxamic acid] | 58.8 | 5.6 | 0 | 10.8 | 50.8
COc1cc2nc(-c3cc(C)oc3C)cc(NCC3CCN(c4ncc(C(=O)NO)cn4)CC3)c2cc1OC [CM-1758, 2-[4-[[[2-(2,5-dimethyl-3-furyl)-6,7-dimethoxy-4-quinolyl]amino]methyl] -1-piperidyl]pyrimidine-5-carbohydroxamic acid] | 55.4 | 23.7 | 12.2 | 13.1 | 46.9
